Legend:
[1] = system: male ICR mouse; assay: Passive avoidance experiment in mice with ethanol-induced memory damage; format: in vivo; settings: oral once a day for 4 days; for Time of arrival in the learning test: acquisition trial, ethanol orally 30 minutes after last administration; for Time of arrival in the retention trial: step-through latency 24 hours after learning test, measured up to 300 seconds, then ethanol
Procedure: (§1) As for the experimental animals, 18 to 20 g of 45 male ICR mouse purchased from DAEHAN Animal Experiment Co., Ltd. were used. Specifically, the animals were classified to include five mice per group, then placed in a cage, sufficiently fed with water and foodstuff, and bred in an animal room wherein the temperature (24 ±1° C.), relative humidity (55±5%) and the light-dark (06:00-18:00, light) were controlled during the experiment period. The animals were classified into nine groups of the non-treated group, the ethanol group, the tacrine group and the groups of PREPARATIONS 1 to 6.
The passive avoidance experiment was performed in order to confirm the effects of the compositions of PREPARATIONS 1 to 6 on each memory and learning. This experiment uses the characteristics that animals intend to enter into the dark instinctively. If the animals intend to enter into the dark, an electrical stimulation is given to the animals to prevent from entering the dark. Thereafter, the short-term memory power against the electrical stimulation was measured.
Four days before the passive avoidance experiment, tacrine and substances PREPARATIONS 1 to 6 were orally administered to seven other groups except for the non-treated group and the ethanol group once a day. On day 4, the last day of administration, tacrine and compositions of PREPARATIONS 1 to 6 were orally administered. After 30 minutes, ethanol which undergoes damage to the memory power of mouse was orally administered to eight groups except for the non-treated group.
The passive avoidance experiment was conducted in the apparatus wherein each room having the same structure and 60 dB or less of noise and including a room with light and a room without light (width 20 cm, length 20 cm, height 20 cm) is connected to the guillotin door (Jungdo Bio & Plant Co. Ltd, Seoul, Korea). The mouse was placed in a bright room with shining light and observed for 10 seconds. Subsequently, the door was opened and the mouse was allowed to enter into the dark room. At this time, the time taken to go into a dark room was measured (Learning Test: acquisition trial). If the mouse enters into the dark room, the door is automatically closed. The electrical stimulation of 0.6 mA was given to the mouse through the stainless grid on the bottom for five seconds.
In order to confirm the effect of recovering the cognitive function of the composition the present invention, influencing on the long-term memory after the learning test, the mouse was placed on the bright side of the room after 24 hours. The time taken to go into the dark room (step-through latency time: time of arrival) was measured up to 300 seconds (retention trial).

[2] = system: male ICR mouse; assay: Morris water-maze experiment in mice with ethanol-induced memory damage; format: in vivo; settings: oral once a day for 4 days, then ethanol; for Mean escape latency: mean of 3 trials a day, cut-off 120 seconds; for Time spent in quadrant: probe test on last day, escape platform removed
Procedure: as §1
The morris water-maze experiment was carried out to measure the degree affecting the recovery of the spatial perception ability and short-term or long-term memory power in experimental animals.
Prior to the morris water-maze experiment, tacrine and the substances of PREPARATIONS 1 to 6 were orally administered to seven groups except for the non-treated group and the ethanol group once a day. On the 4th day, the last day of administration, tacrine and the substances from Preparations 1 to 6 were administered. After 30 minutes, ethanol which undergoes damage to the memory power of the mouse was orally administered to eight groups except for the non-treated group.
In the morris water-maze apparatus, water (temperature: 22±2° C.) was filled by 32 cm within a tank filled with opaque water (diameter 120 cm, height 45 cm) and an escape platform (diameter 10 cm, height 30 cm) was installed in one section of the quadrant located 2 cm below the surface of the water. The powdered skim milk was added to be invisible. The experiment was conducted for five days. The possibility of going to the escape area by chance by changing the positions of acquisition three times a day at three different positions which were minimized. If animals go to the escape area and stay for more than 10 seconds, the time taken until an escape area was found was set to the escape latency. The mean value of the experiments 3 times a day was set to the mean escape latency. In the morris water-maze test, since the test animals remembered and find out the targeting position, the position of the marker was remained constant during the experiment period so that there was no change in the surrounding environment. In the case where the escape platform was not found within 120 seconds, the experiment animal was induced to the escape platform and stayed for 10 seconds, thereby having the position remembered.
On the last day of the experiment, the escape platform was removed. The probe test for measuring the time spent in platform quadrant was carried out.

Row | Compound | Time of arrival in the learning test [1] [s] | Time of arrival in the retention trial [1] [s] | Mean escape latency [2] [s] | Time spent in quadrant [2] [s]
1 | Nc1c2c(nc3ccccc13)CCCC2 [Tacrine, tacrine] | 20 | 85 | 56 | 28
2 | CCO [Ethanol, ethanol] | 12 | 21 | 121 | 18

Reference: patent publication US20150238539A1, “COMPOSITION FOR BRAIN-NEURON PROTECTION AND BRAIN-DISEASE PREVENTION, ALLEVIATION OR TREATMENT COMPRISING MUSKRAT MUSK” (priority 2012, published 2015)
